Counter-ions that a name gives are not always drawn. Like-named read-outs stand apart in the source and are kept apart here.
Experiment: In Vitro Cyclization Assay (disappearance of test compound in buffer, half-life of degradation)
Assay type: physicochemical
Conditions: 20° C., approximately 2.2 mM, read-out: Ave (half-life of degradation) (converted)
Protocol: 1. In Vitro Cyclization Assay
This assay measures the ability of a test compound of the present invention to cyclize in vitro. Also determined is the time required to effect such cyclization.
Test compounds are dissolved (approximately 2.2 mM) in 50 mM phosphate/citrate buffers at a variety of pHs, including pH 7.4 and pH 8.5. The disappearance of the test compounds is observed over time by incubating the solutions at 20° C. and periodically quantifying the concentration of the remaining compound. Since the rate of disappearance follows first order kinetics, the half-life of degradation is calculated from the slope of the regression of natural logarithm transformed data on time. For pH 10 half-life results, CPBG is used: The half-life assay is conducted in phosphate/citrate buffer to test compound stability at pH 6, pH 7.4 and pH 8.5, but citrate/phosphate/glycine buffer is used when compounds were tested at pH 10.

[1] = nominal pH 6, 50 mM phosphate/citrate buffer
[2] = nominal pH 7.4, 50 mM phosphate/citrate buffer
[3] = nominal pH 8.5, 50 mM phosphate/citrate buffer
[4] = nominal pH 10, citrate/phosphate/glycine buffer

| Compound | half-life at 2.2 mM [1] [h] | half-life at 2.2 mM [2] [h] | half-life at 2.2 mM [3] [h] | half-life at 2.2 mM [4] [h] |
| --- | --- | --- | --- | --- |
| CN(CC(F)CN)C(=O)Oc1ccc2c3c1O[C@H]1C(=O)CC[C@H]4[C@@H](C2)N(C)CC[C@]314 (stereo partly drawn) [Example 2, Hydromorphone 3-(N-methyl-N-(3-amino-2-fluoro)propyl)carbamate Hydrochloride] | 334 | 18.1 | 5.18 | 1.68 |
| CN(CC(F)(F)CN)C(=O)Oc1ccc2c3c1OC1C(=O)CCC4C(C2)N(C)CCC314 (stereo not drawn) [Example 1, Hydromorphone 3-(N-methyl-N-(3-amino-2,2-difluoro)propyl)carbamate Hydrochloride] | 99.1 | 9.43 | 6.13 | 8.04 |
| CN(CCCN)C(=O)Oc1ccc2c3c1O[C@H]1C(=O)CC[C@H]4[C@@H](C2)N(C)CC[C@]314 [Comparison, Hydromorphone 3-(N-methyl-N-(3-amino)propyl)carbamate Hydrochloride, reference compound] | 3190 | 224 | 74 | 1.33 |
